From DBAASP
Values after ≈ are worked out from the molar mass of the structure shown. Values joined by “and” are separate entries in the source; they are usually repeats but may differ in a detail not shown here. Equal values may be shown once.

Columns and labels:
Experiment in all cases: ≥ marks a high value that may be exact or a test limit, other limits are often not marked, values filed in µg/mL are converted to µM
[1] = tested on: Staphylococcus aureus ATCC 43300
[2] = tested on: Salmonella enterica subsp. enterica serovar Enteritidis
[3] = tested on: Escherichia coli ATCC 25922
[4] = tested on: Staphylococcus aureus ATCC 29213
Salmonella sp. = tested on: Salmonella sp.
Yersinia enterocolitica = tested on: Yersinia enterocolitica
Escherichia coli = tested on: Escherichia coli
[5] = tested on: Bacillus anthracis Sterne 34F2
[6] = tested on: Bacillus subtilis ATCC 9372
[7] = tested on: Burkholderia thailandensis
[8] = tested on: Staphylococcus aureus ATCC 25923
[9] = tested on: Pseudomonas aeruginosa 213
[10] = tested on: Pseudomonas aeruginosa H103
Candida albicans C627 = tested on: Candida albicans C627
[11] = tested on: Staphylococcus aureus C623
[12] = tested on: Pseudomonas aeruginosa LES400
[13] = tested on: Escherichia coli ESBL 63103
[14] = tested on: Enterococcus faecium mic80
Escherichia coli SBS 363 = tested on: Escherichia coli SBS 363
Candida albicans MDM8 = tested on: Candida albicans MDM8
Micrococcus luteus A270 = tested on: Micrococcus luteus A270
[15] = tested on: Staphylococcus aureus SAP 0017
[16] = tested on: Mycobacterium tuberculosis H37Rv
[17] = tested on: Candida albicans ATCC 2002
[18] = tested on: Staphylococcus aureus ATCC 2592
Bacillus cereus = tested on: Bacillus cereus
Shigella dysenteriae = tested on: Shigella dysenteriae
Pseudomonas aeruginosa = tested on: Pseudomonas aeruginosa
[19] = tested on: Micrococcus luteus ATCC 10240
Escherichia coli BL21AI = tested on: Escherichia coli BL21AI

Q: `CC[C@H](C)[C@H](NC(=O)[C@H](CCC(N)=O)NC(=O)[C@@H](N)CCCN=C(N)N)C(=O)N[C@@H](CCCN=C(N)N)C(=O)N[C@@H](CCCN=C(N)N)C(=O)N[C@H](C(=O)N[C@H](C(=O)N[C@@H](CCC(N)=O)C(=O)N[C@@H](CCCN=C(N)N)C(N)=O)[C@@H](C)CC)[C@@H](C)CC` [RQIRRIIQR] was tested. Which MIC [1] did it give?
A: > 40.4 µM

Q: And the MIC [2]?
A: ≥ 40.4 µM

Q: What about the MIC [3] of the same molecule?
A: > 40.4 µM

Q: What about the MIC [4] of the same molecule?
A: > 40.4 µM

Q: What about the MIC (Salmonella sp.) of the same molecule?
A: ≥ 40.4 µM

Q: And the MIC (Yersinia enterocolitica)?
A: ≥ 40.4 µM

Q: What about the MIC (Escherichia coli) of the same molecule?
A: > 40.4 µM

Q: With `CC[C@H](C)[C@H](NC(=O)[C@H](CCCCN)NC(=O)[C@H](C)NC(=O)CNC(=O)[C@@H](NC(=O)[C@H](CCCCN)NC(=O)[C@@H](NC(=O)[C@H](CCCCN)NC(=O)[C@H](C)NC(=O)CNC(=O)[C@@H](NC(=O)[C@H](CCCCN)NC(=O)[C@@H](NC(=O)[C@H](CCCCN)NC(=O)[C@H](C)NC(=O)CNC(=O)[C@@H](NC(=O)[C@@H](N)CCCCN)[C@@H](C)CC)[C@@H](C)CC)[C@@H](C)CC)[C@@H](C)CC)[C@@H](C)CC)C(=O)O` [KIGAKIKIGAKIKIGAKI] as the molecule, how does the MIC [5] read?
A: ≥ 100 µM

Q: And the MIC [6]?
A: 31 µM (≈ 57.4 µg/mL)

Q: And the MIC [7]?
A: ≥ 50 µM

Q: What does the source list for `CC[C@H](C)[C@H](NC(=O)[C@H](Cc1ccc(O)cc1)NC(=O)CNC(=O)[C@@H](NC(=O)[C@@H](NC(=O)CNC(=O)[C@@H](NC(=O)[C@H](C)NC(=O)[C@H](C)NC(=O)CNC(=O)CNC(=O)[C@@H](N)CC(C)C)[C@@H](C)O)C(C)C)[C@@H](C)CC)C(=O)N[C@@H](CO)C(=O)N[C@@H](CC(N)=O)C(=O)N[C@@H](CCC(N)=O)C(=O)N[C@H](C(=O)N[C@@H](CS)C(=O)N1CCC[C@H]1C(=O)N[C@H](C(=O)N[C@H](C(=O)N[C@@H](C)C(=O)N[C@@H](CS)C(=O)N[C@H](C(=O)N[C@@H](CCCN=C(N)N)C(=O)N[C@@H](C)C(=O)N[C@@H](CS)C(=O)O)[C@@H](C)O)[C@@H](C)O)[C@@H](C)O)[C@@H](C)O` [LGGAATGVIGYISNQTCPTTACTRAC]?
A: MIC [5]: ≥ 100 µM; MIC [6]: ≥ 100 µM; MIC [7]: ≥ 50 µM

Q: For `CC(C)C[C@H](NC(=O)[C@H](Cc1c[nH]c2ccccc12)NC(=O)[C@H](CCCN=C(N)N)NC(=O)[C@H](Cc1c[nH]c2ccccc12)NC(=O)[C@H](Cc1c[nH]c2ccccc12)NC(=O)[C@H](CCCCN)NC(=O)[C@H](CCCCN)NC(=O)[C@H](Cc1c[nH]c2ccccc12)NC(=O)[C@@H](N)CCCN=C(N)N)C(=O)O` [RWKKWWRWL], which MIC [8] is on record?
A: 2.77 µM (≈ 4 µg/mL)

Q: And the MIC [9]?
A: 11.1 µM (≈ 16 µg/mL)

Q: What about the MIC [10] of the same molecule?
A: 1.38 µM (≈ 2 µg/mL)

Q: What about the MIC (Candida albicans C627) of the same molecule?
A: 2.77 µM (≈ 4 µg/mL)

Q: And the MIC [11]?
A: 2.77 µM (≈ 4 µg/mL)

Q: And the MIC [12]?
A: 11.1 µM (≈ 16 µg/mL)

Q: What about the MIC [13] of the same molecule?
A: 11.1 µM (≈ 16 µg/mL)

Q: And the MIC [14]?
A: 11.1 µM (≈ 16 µg/mL)

Q: With `CC[C@H](C)[C@H](N)C(=O)N[C@@H](CCCCN)C(=O)N[C@@H](CCCCN)C(=O)N[C@@H](CCCN=C(N)N)C(=O)N[C@@H](Cc1c[nH]c2ccccc12)C(=O)N[C@@H](Cc1c[nH]c2ccccc12)C(=O)N[C@@H](Cc1c[nH]c2ccccc12)C(=O)N[C@@H](Cc1ccccc1)C(=O)N[C@@H](CCCN=C(N)N)C(=O)O` [IKKRWWWFR] as the molecule, how does the MIC [8] read?
A: 22.8 µM (≈ 32 µg/mL)

Q: What about the MIC [9] of the same molecule?
A: ≥ 91.1 µM

Q: What about the MIC [10] of the same molecule?
A: ≥ 91.1 µM

Q: What about the MIC (Candida albicans C627) of the same molecule?
A: ≥ 91.1 µM

Q: What about the MIC [11] of the same molecule?
A: 22.8 µM (≈ 32 µg/mL)

Q: And the MIC [12]?
A: ≥ 91.1 µM

Q: And the MIC [13]?
A: ≥ 45.5 µM

Q: What about the MIC [14] of the same molecule?
A: ≥ 45.5 µM

Q: Which MIC (Escherichia coli SBS 363) does the source give for `CC[C@H](C)[C@H](NC(=O)[C@H](CC(C)C)NC(=O)[C@H](CO)NC(=O)[C@H](CC(C)C)NC(=O)[C@H](Cc1ccccc1)NC(=O)[C@@H](N)CO)C(=O)N[C@@H](CCCN=C(N)N)C(=O)N[C@@H](CCCCN)C(=O)N[C@@H](CC(C)C)C(=O)N[C@H](C(=O)N[C@H](C(N)=O)[C@@H](C)O)[C@@H](C)CC` [SFLSLIRKLIT] here?
A: 1.56 µM (≈ 2.01 µg/mL)

Q: And the MIC (Candida albicans MDM8)?
A: 0.78 µM (≈ 1.01 µg/mL)

Q: What about the MIC (Micrococcus luteus A270) of the same molecule?
A: 0.78 µM (≈ 1.01 µg/mL)

Q: What does the source list for `CC[C@H](C)[C@H](NC(=O)CNC(=O)[C@H](CO)NC(=O)[C@H](CC(C)C)NC(=O)[C@@H](NC(=O)[C@H](CCCN=C(N)N)NC(=O)CNC(=O)[C@@H](NC(=O)[C@H](CC(C)C)NC(=O)[C@@H]1CCCN1C(=O)[C@H](CC(C)C)NC(=O)[C@@H](N)Cc1ccccc1)[C@@H](C)CC)C(C)C)C(=O)N[C@@H](CC(C)C)C(=O)O` [FLPLIGRVLSGIL]?
A: MIC [5]: ≥ 100 µM; MIC [6]: ≥ 100 µM; MIC [7]: ≥ 50 µM

Q: Which MIC [15] does the source give for `CC[C@H](C)[C@H](NC(=O)[C@H](C)NC(=O)[C@H](CCCN=C(N)N)NC(=O)[C@H](CC(C)C)NC(=O)[C@@H](NC(=O)[C@H](CCCCN)NC(=O)[C@H](CC(C)C)NC(=O)[C@H](CC(C)C)NC(=O)[C@H](Cc1c[nH]c2ccccc12)NC(=O)[C@H](CCCCN)NC(=O)[C@@H](NC(=O)[C@@H](N)C(C)C)[C@@H](C)CC)[C@@H](C)CC)C(N)=O` [VIKWLLKILRAI] here?
A: 1 µM and 2 µM

Q: For `CC[C@H](C)[C@H](NC(=O)[C@H](CC(N)=O)NC(=O)[C@H](C)NC(=O)[C@H](CCCN=C(N)N)NC(=O)[C@H](Cc1ccccc1)NC(=O)[C@H](CCC(=O)O)NC(=O)[C@H](Cc1ccccc1)NC(=O)[C@H](Cc1ccc(O)cc1)NC(=O)[C@H](Cc1ccccc1)NC(=O)CNC(=O)[C@@H]1CCCN1C(=O)[C@@H]1CCCN1C(=O)[C@@H](N)CCCN=C(N)N)C(=O)N[C@H](C(=O)N1CCC[C@H]1C(=O)N[C@@H](Cc1ccc(O)cc1)C(=O)N[C@@H](CC(C)C)C(=O)NCC(=O)N[C@@H](CCCN=C(N)N)C(=O)N[C@@H](CCCN=C(N)N)C(=O)O)[C@@H](C)CC` [RPPGFYFEFRANIIPYLGRR], which MIC [16] is on record?
A: ≥ 60.7 µM

Q: What does the source list for `CSCC[C@@H]1NC(=O)[C@H](CC(C)C)NC(=O)[C@H](C)NC(=O)[C@H](CCCN=C(N)N)NC(=O)[C@H](CC(N)=O)NC(=O)[C@@H](NC(=O)[C@H](CCCCN)NC(=O)[C@H](CC(N)=O)NC(=O)[C@H](CCCN=C(N)N)NC(=O)[C@@H]2CCCN2C(=O)[C@H](CCSC)NC(=O)[C@H](CO)NC(=O)[C@H](CC(C)C)NC(=O)[C@H](C)NC(=O)[C@@H](N)CC(N)=O)CSSC[C@@H](C(=O)N[C@@H](Cc2ccccc2)C(=O)NCC(=O)O)NC1=O` [NALSMPRNKCNRALMCFG]?
A: MIC [17]: 3.08 µM (≈ 6.24 µg/mL); MIC [3]: 24.7 µM (≈ 50 µg/mL); MIC [18]: 6.17 µM (≈ 12.5 µg/mL); MIC (Bacillus cereus): 6.17 µM (≈ 12.5 µg/mL); MIC (Shigella dysenteriae): 3.08 µM (≈ 6.24 µg/mL); MIC (Pseudomonas aeruginosa): 6.17 µM (≈ 12.5 µg/mL)

Q: Which results are given for `CC[C@H](C)[C@H](NC(=O)[C@H](Cc1ccc(O)cc1)NC(=O)[C@@H](NC(=O)[C@@H]1CCCN1C(=O)[C@H](CCCN=C(N)N)NC(=O)[C@H](CC(N)=O)NC(=O)[C@H](CC(N)=O)NC(=O)CN)C(C)C)C(=O)N1CCC[C@H]1C(=O)N[C@@H](CCC(N)=O)C(=O)N1CCC[C@H]1C(=O)N[C@@H](CCCN=C(N)N)C(=O)N1CCC[C@H]1C(=O)N1CCC[C@H]1C(=O)N[C@@H](Cc1cnc[nH]1)C(=O)N1CCC[C@H]1C(=O)N[C@@H](C)C(=O)N[C@@H](CC(C)C)C(N)=O` [GNNRPVYIPQPRPPHPAL]?
A: MIC [19]: ≥ 61.8 µM; MIC (Escherichia coli BL21AI): ≥ 61.8 µM

Q: Which results are given for `CC[C@H](C)[C@H](NC(=O)[C@H](CCC(N)=O)NC(=O)[C@@H](N)CCCN=C(N)N)C(=O)N[C@@H](CCCN=C(N)N)C(=O)N[C@@H](CCCN=C(N)N)C(=O)N[C@@H](Cc1c[nH]c2ccccc12)C(=O)N[C@@H](Cc1c[nH]c2ccccc12)C(=O)N[C@@H](CCSC)C(=O)N[C@@H](CCCN=C(N)N)C(N)=O` [RQIRRWWMR]?
A: MIC [1]: > 36 µM; MIC [2]: ≥ 36 µM; MIC [3]: > 36 µM; MIC [4]: > 36 µM; MIC (Salmonella sp.): ≥ 36 µM; MIC (Yersinia enterocolitica): ≥ 36 µM; MIC (Escherichia coli): > 36 µM
